Changes are numbered by the printed parent chain. “And” between values parts separate entries of the source, which are not always exact repeats. Equal values may be shown once.
Experiments:
Test in all cases: biochemical
Conditions in all cases: IC50 (M)
[1] = molecular target: T1, recombinant wildtype and mutated PPO (Amaranthus PPO2: PPX2L_WC SEQ ID NO 2, PPX2L_AC SEQ ID NO 4, dG210 SEQ ID NO 6 & 8) (Amaranthus tuberculatus, UniProt Q0NZW9, D133A/F420I/R128Y)
T1 sequence (Q0NZW9 1-534 R128Y/D133A/F420I): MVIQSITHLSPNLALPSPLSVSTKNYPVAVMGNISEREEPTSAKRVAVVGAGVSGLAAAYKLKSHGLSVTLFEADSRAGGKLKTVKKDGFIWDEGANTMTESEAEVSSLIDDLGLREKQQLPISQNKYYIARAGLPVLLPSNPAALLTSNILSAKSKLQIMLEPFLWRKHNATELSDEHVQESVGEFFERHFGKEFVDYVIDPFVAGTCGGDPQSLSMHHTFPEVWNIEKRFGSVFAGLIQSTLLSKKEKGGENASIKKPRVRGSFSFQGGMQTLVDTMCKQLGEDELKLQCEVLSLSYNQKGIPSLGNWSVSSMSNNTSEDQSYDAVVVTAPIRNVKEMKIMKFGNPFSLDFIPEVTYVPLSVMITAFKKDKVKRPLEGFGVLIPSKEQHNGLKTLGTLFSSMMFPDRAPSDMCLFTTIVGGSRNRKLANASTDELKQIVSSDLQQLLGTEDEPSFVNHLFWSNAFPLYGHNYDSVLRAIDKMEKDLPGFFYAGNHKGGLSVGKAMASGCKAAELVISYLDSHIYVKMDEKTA

[2] = molecular target: T2, recombinant wildtype and mutated PPO (Amaranthus PPO2: PPX2L_WC SEQ ID NO 2, PPX2L_AC SEQ ID NO 4, dG210 SEQ ID NO 6 & 8) (Amaranthus tuberculatus, UniProt Q0NZW9, D133A/F420L/R128I)
T2 sequence (Q0NZW9 1-534 R128I/D133A/F420L): T1 sequence (Q0NZW9 1-534 R128Y/D133A/F420I) with Y128I, I420L

[3] = molecular target: recombinant wildtype and mutated PPO (Amaranthus PPO2: PPX2L_WC SEQ ID NO 2, PPX2L_AC SEQ ID NO 4, dG210 SEQ ID NO 6 & 8) (Amaranthus tuberculatus, UniProt Q0NZW9, D133A/F420M/R128C)
Chain of recombinant wildtype and mutated PPO (Amaranthus PPO2: PPX2L_WC SEQ ID NO 2, PPX2L_AC SEQ ID NO 4, dG210 SEQ ID NO 6 & 8) (Amaranthus tuberculatus, UniProt Q0NZW9, D133A/F420M/R128C) (Q0NZW9 1-534 R128C/D133A/F420M): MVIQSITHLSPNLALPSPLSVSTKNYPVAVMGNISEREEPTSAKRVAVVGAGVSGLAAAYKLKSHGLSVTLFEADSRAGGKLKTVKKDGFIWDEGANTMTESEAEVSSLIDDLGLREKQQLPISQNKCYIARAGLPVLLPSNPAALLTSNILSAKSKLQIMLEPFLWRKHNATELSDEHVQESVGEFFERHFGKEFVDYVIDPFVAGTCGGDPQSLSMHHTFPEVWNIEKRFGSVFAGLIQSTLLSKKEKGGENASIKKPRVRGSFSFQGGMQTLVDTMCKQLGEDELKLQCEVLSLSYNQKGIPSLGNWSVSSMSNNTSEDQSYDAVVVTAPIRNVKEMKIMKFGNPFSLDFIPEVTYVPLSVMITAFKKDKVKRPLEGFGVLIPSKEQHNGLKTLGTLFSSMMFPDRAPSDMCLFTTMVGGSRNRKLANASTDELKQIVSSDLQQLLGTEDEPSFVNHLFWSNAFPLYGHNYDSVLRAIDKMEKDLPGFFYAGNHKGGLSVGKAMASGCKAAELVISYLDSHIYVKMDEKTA

[4] = molecular target: recombinant wildtype and mutated PPO (Amaranthus PPO2: PPX2L_WC SEQ ID NO 2, PPX2L_AC SEQ ID NO 4, dG210 SEQ ID NO 6 & 8) (Amaranthus tuberculatus, UniProt Q0NZW9, D133A/F420M/R128H)
Chain of recombinant wildtype and mutated PPO (Amaranthus PPO2: PPX2L_WC SEQ ID NO 2, PPX2L_AC SEQ ID NO 4, dG210 SEQ ID NO 6 & 8) (Amaranthus tuberculatus, UniProt Q0NZW9, D133A/F420M/R128H) (Q0NZW9 1-534 R128H/D133A/F420M): as the sequence (Q0NZW9 1-534 R128C/D133A/F420M) above, with C128H counted along it

[5] = molecular target: recombinant wildtype and mutated PPO (Amaranthus PPO2: PPX2L_WC SEQ ID NO 2, PPX2L_AC SEQ ID NO 4, dG210 SEQ ID NO 6 & 8) (Amaranthus tuberculatus, UniProt Q0NZW9, D133A/F420M/R128M)
Chain of recombinant wildtype and mutated PPO (Amaranthus PPO2: PPX2L_WC SEQ ID NO 2, PPX2L_AC SEQ ID NO 4, dG210 SEQ ID NO 6 & 8) (Amaranthus tuberculatus, UniProt Q0NZW9, D133A/F420M/R128M) (Q0NZW9 1-534 R128M/D133A/F420M): as the sequence (Q0NZW9 1-534 R128C/D133A/F420M) above, with C128M counted along it

[6] = molecular target: T3, recombinant wildtype and mutated PPO (Amaranthus PPO2: PPX2L_WC SEQ ID NO 2, PPX2L_AC SEQ ID NO 4, dG210 SEQ ID NO 6 & 8) (Amaranthus tuberculatus, UniProt Q0NZW9, D133A/F420M/R128N)
T3 sequence (Q0NZW9 1-534 R128N/D133A/F420M): T1 sequence (Q0NZW9 1-534 R128Y/D133A/F420I) with Y128N, I420M

[7] = molecular target: recombinant wildtype and mutated PPO (Amaranthus PPO2: PPX2L_WC SEQ ID NO 2, PPX2L_AC SEQ ID NO 4, dG210 SEQ ID NO 6 & 8) (Amaranthus tuberculatus, UniProt Q0NZW9, D133A/F420V/R128C)
Chain of recombinant wildtype and mutated PPO (Amaranthus PPO2: PPX2L_WC SEQ ID NO 2, PPX2L_AC SEQ ID NO 4, dG210 SEQ ID NO 6 & 8) (Amaranthus tuberculatus, UniProt Q0NZW9, D133A/F420V/R128C) (Q0NZW9 1-534 R128C/D133A/F420V): as the sequence (Q0NZW9 1-534 R128C/D133A/F420M) above, with M420V counted along it

C#CCN1C(=O)C(F)(F)Oc2cc(F)c(-n3c(=O)n(C)c(=S)n(C)c3=O)cc21
IC50 [1]: 4.82e-07 M and 2.63e-06 M
IC50 [2]: 4.05e-07 M and 2.45e-07 M
IC50 [3]: 2.53e-08 M and 2.33e-08 M
IC50 [4]: 2.64e-08 M and 2.13e-08 M
IC50 [5]: 7.69e-08 M and 7.07e-08 M and 4.84e-08 M
IC50 [6]: 7.12e-08 M and 4.97e-08 M
IC50 [7]: 1.66e-07 M and 2.66e-07 M

C#CCN1C(=O)C(F)(F)Oc2cc(F)c(-n3c(=O)cc(C(F)(F)F)n(C)c3=O)cc21
IC50 [1]: 4.46e-07 M
IC50 [2]: 2.69e-07 M
IC50 [3]: 1.11e-08 M
IC50 [4]: 1.05e-08 M
IC50 [5]: 4.94e-08 M
IC50 [6]: 5.94e-08 M
IC50 [7]: 2.6e-08 M

C#CCN1C(=O)C(F)(F)Oc2cc(F)c(N3C(=O)C4=C(CCCC4)C3=O)cc21
IC50 [1]: ≥ 1e-05 M
IC50 [2]: ≥ 1e-05 M
IC50 [3]: 3.57e-06 M
IC50 [4]: 3.07e-06 M
IC50 [5]: ≥ 1e-05 M
IC50 [6]: ≥ 1e-05 M
IC50 [7]: 3.7e-06 M

COC(Oc1ccccc1Oc1cc(-n2c(=O)cc(C(F)(F)F)n(C)c2=O)c(F)cc1Cl)C(=O)OC1CCCCC1 (stereo not shown)
IC50 [1]: 6.82e-07 M
IC50 [2]: 1.07e-07 M
IC50 [3]: 2.98e-08 M
IC50 [4]: 2.97e-07 M
IC50 [5]: 3.22e-08 M
IC50 [6]: 1.48e-07 M
IC50 [7]: 1.01e-07 M

COC(=O)C(OC)Oc1ccccc1Oc1cc(-n2c(=O)cc(C(F)(F)F)n(C)c2=O)c(F)cc1Cl (stereo not shown)
IC50 [1]: 2.86e-08 M
IC50 [2]: 7.13e-08 M
IC50 [3]: 1.16e-08 M
IC50 [4]: 1.76e-08 M
IC50 [5]: 1.62e-08 M
IC50 [6]: 1.2e-07 M
IC50 [7]: 1.16e-08 M

CCOC(=O)COc1ncccc1Oc1cc(-n2c(=O)cc(C(F)(F)F)n(C)c2=O)c(F)cc1Cl [A.13, ethyl [3-[2-chloro-4-fluoro-5-(1-methyl-6-trifluoromethyl-2,4-dioxo-1,2,3,4-tetrahydropyrimidin-3-yl)phenoxy]-2-pyridyloxy]acetate]
IC50 [1]: 4.64e-07 M
IC50 [2]: 2.01e-07 M
IC50 [3]: 6.95e-08 M
IC50 [4]: 4.18e-08 M
IC50 [5]: 4.83e-08 M
IC50 [6]: 1.92e-07 M
IC50 [7]: 1.24e-07 M

O=C(O)c1cc(Oc2ccc(C(F)(F)F)cc2Cl)ccc1[N+](=O)[O-] [ACIFLUORFEN]
IC50 [1]: ≥ 1e-05 M
IC50 [2]: ≥ 1e-05 M
IC50 [3]: ≥ 1e-05 M
IC50 [4]: ≥ 1e-05 M
IC50 [5]: ≥ 1e-05 M
IC50 [6]: ≥ 1e-05 M
IC50 [7]: 6.72e-06 M

C=CCOC(=O)C(C)(C)OC(=O)c1cc(-n2c(=O)cc(C(F)(F)F)n(C)c2=O)ccc1Cl [BUTAFENACIL]
IC50 [1]: 5.47e-08 M
IC50 [2]: 8.02e-08 M
IC50 [3]: 2.31e-08 M
IC50 [4]: 1.28e-08 M
IC50 [5]: 4.38e-08 M
IC50 [6]: 2.84e-08 M
IC50 [7]: 6.69e-08 M

CCOC(=O)C(Cl)Cc1cc(-n2nc(C)n(C(F)F)c2=O)c(F)cc1Cl (stereo not shown) [CARFENTRAZONE-ETHYL]
IC50 [1]: 2.82e-07 M
IC50 [2]: 1.61e-07 M
IC50 [3]: 2.99e-08 M
IC50 [4]: 1.21e-07 M
IC50 [5]: 7.86e-08 M
IC50 [6]: 1.88e-07 M
IC50 [7]: 3.96e-07 M

C#CCN1C(=O)COc2cc(F)c(N3C(=O)C4=C(CCCC4)C3=O)cc21 [Flumioxazin, flumioxazin]
IC50 [1]: ≥ 1e-05 M
IC50 [2]: ≥ 1e-05 M
IC50 [3]: ≥ 1e-05 M
IC50 [4]: ≥ 1e-05 M
IC50 [5]: ≥ 1e-05 M
IC50 [6]: 6.15e-06 M
IC50 [7]: 7.28e-06 M

CS(=O)(=O)NC(=O)c1cc(Oc2ccc(C(F)(F)F)cc2Cl)ccc1[N+](=O)[O-] [Fomesafen, fomesafen]
IC50 [1]: 2.15e-05 M
IC50 [2]: ≥ 1e-05 M
IC50 [3]: 1.1e-05 M
IC50 [4]: 2.91e-06 M
IC50 [5]: ≥ 1e-05 M
IC50 [6]: 1.07e-05 M
IC50 [7]: 2.36e-06 M

CCOC(=O)C(C)OC(=O)c1cc(Oc2ccc(C(F)(F)F)cc2Cl)ccc1[N+](=O)[O-] (stereo not shown) [Lactofen, lactofen]
IC50 [1]: 4.8e-08 M
IC50 [2]: 1.3e-07 M
IC50 [3]: 6.39e-08 M
IC50 [4]: 6.13e-08 M
IC50 [5]: 1.31e-07 M
IC50 [6]: 1.67e-07 M
IC50 [7]: 1.5e-08 M

CCOc1cc(Oc2ccc(C(F)(F)F)cc2Cl)ccc1[N+](=O)[O-] [OXIFLUORFEN]
IC50 [1]: 1.17e-06 M
IC50 [2]: 4.21e-06 M
IC50 [3]: 4.16e-07 M
IC50 [4]: 3.68e-07 M
IC50 [5]: 7.36e-07 M
IC50 [6]: 3.91e-07 M
IC50 [7]: 6.52e-08 M
